How the values were obtained:
beta amyloid production = experiment: Repressor Release Assay (RRA); format: cell-based; conditions: for fold induction at 10 µg/mL / APPI Fold Increase / APPI % of Example #98: Conc 10 μg/ml; for APPI % of Example #98: relative to Example 98
In short: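 Read-out is luciferase luminescence (RLU) after 36-48 h duplicate compound exposure of transfected CHO-K1 cells. These cells carry transiently introduced APP-lacI and pRSVO-luc DNA. Diluent control was 25 mM Hepes/1% DMSO; toxicity recorded as binary score (1 non-toxic, 0 toxic).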

CHO-K1 cells = experiment: Toxicity in RRA (loss of luciferase signal); conditions: toxicity = loss of signal (<0.75 fold increase)
Protocol: The beta amyloid inhibitory activity of the compounds of the present invention was determined using the Repressor Release Assay (RRA).
“Fold Increase” refers to the amount of luciferase activity (measured in relative light units) over diluent control. “SEM” refers to the standard error of the mean for fold increase.

[1] = luciferase activity over diluent control, read-out: APPI Fold Increase
[2] = luciferase activity over diluent control

SMILES	fold induction at 10 µg/mL (beta amyloid production; [1])	(%)APPI Toxicity (CHO-K1 cells; Conc 10 μg/ml)	APPI Fold Increase (beta amyloid production; [2]) [fold]	APPI % of Example #98 (beta amyloid production) [%]	fold induction at 20 µg/mL (beta amyloid production; Conc 20 μg/ml, luciferase activity over diluent control, read-out: APPI Fold Increase)	(%)APPI Toxicity (CHO-K1 cells; Conc 20 μg/ml)
CCCCCC(O)[C@@H](NS(=O)(=O)c1cccc(Cl)c1)[C@@H](C)CC (stereo partly drawn) [Example 188, 3-chloro-N-{(1S)-2-hydroxy-1-[(1S)-1-methylpropyl]heptyl}benzenesulfonamide]	3.54	1 (1=non-toxic)				
CCCCC(O)[C@@H](NS(=O)(=O)c1cccc(Cl)c1)[C@@H](C)CC (stereo partly drawn) [Example 189, 3-chloro-N-{(1S)-2-hydroxy-1-[(1S)-1-methylpropyl]hexyl}benzenesulfonamide]	1.51	1 (1=non-toxic)				
CC[C@H](C)[C@H](NS(=O)(=O)c1cccc(Cl)c1)C(O)C(C)C (stereo partly drawn) [Example 190, 3-chloro-N-{(1S)-2-hydroxy-3-methyl-1-[(1S)-1-methylpropyl]butyl}benzenesulfonamide]	1.76	1 (1=non-toxic)				
CC[C@H](C)[C@H](NS(=O)(=O)c1cccc(Cl)c1)C(O)C(C)(C)C (stereo partly drawn) [Example 191, 3-chloro-N-{(1S)-2-hydroxy-3,3-dimethyl-1-[(1S)-1-methylpropyl]butyl}benzenesulfonamide]	2.42	1 (1=non-toxic)				
CC[C@H](C)[C@H](NS(=O)(=O)c1cccc(Cl)c1)C(O)CC(C)C (stereo partly drawn) [Example 192, 3-chloro-N-{(1S)-2-hydroxy-4-methyl-1-[(1S)-1-methylpropyl]pentyl}benzenesulfonamide]	2.21	1 (1=non-toxic)				
C=CC(O)[C@@H](NS(=O)(=O)c1cccc(Cl)c1)[C@@H](C)CC (stereo partly drawn) [Example 193, 3-chloro-N-{(1 S)-2-hydroxy-1-[(1S)-1-methylpropyl]-3-butenyl}benzenesulfonamide]	1.78	1 (1=non-toxic)				
C=CCC(O)[C@@H](NS(=O)(=O)c1cccc(Cl)c1)[C@@H](C)CC (stereo partly drawn) [Example 194, 3-chloro-N-{(1S)-2-hydroxy-1-[(1S)-1-methylpropyl]-4-pentenyl}benzenesulfonamide]	3.42	1 (1=non-toxic)				
CCC(O)[C@@H](NS(=O)(=O)c1cccc(Cl)c1)[C@@H](C)CC (stereo partly drawn) [Example 195, 3-chloro-N-{(1S)-2-hydroxy-1-[(1S)-1-methylpropyl]butyl}benzenesulfonamide]	2.16	1 (1=non-toxic)				
CC[C@H](C)[C@H](NS(=O)(=O)c1cccc(Cl)c1)C(O)c1ccc(Cl)cc1 (stereo partly drawn) [Example 196, 3-chloro-N-{(1S,2S)-1-[(4-chlorophenyl)(hydroxy)methyl]-2-methylbutyl}benzenesulfonamide]	1.78	1 (1=non-toxic)				
CC[C@H](C)[C@H](NS(=O)(=O)c1cccc(Cl)c1)C(O)C=C(C)C (stereo partly drawn) [Example 197, 3-chloro-N-{(1S)-2-hydroxy-4-methyl-1-[(1S)-1-methylpropyl]-3-pentenyl}benzenesulfonamide]	1.54	1 (1=non-toxic)				
CC[C@H](C)[C@H](NS(=O)(=O)c1cccc(Cl)c1)C(O)c1ccc(OC)cc1 (stereo partly drawn) [Example 198, 3-chloro-N-{(1S,2S)-1-[hydroxy(4-methoxyphenyl)methyl]-2-methylbutyl}benzenesulfonamide]	1.54	1 (1=non-toxic)				
CC[C@H](C)[C@H](NS(=O)(=O)c1cccc(Cl)c1)C(O)CCC1OCCCO1 (stereo partly drawn) [Example 199, 3-chloro-N-{(1S)-4-(1,3-dioxan-2-yl)-2-hydroxy-1-[(1S)-1-methylpropyl]butyl}benzenesulfonamide]	1.61	1 (1=non-toxic)				
C=CCCC(O)[C@@H](NS(=O)(=O)c1cccc(Cl)c1)[C@@H](C)CC (stereo partly drawn) [Example 200, 3-chloro-N-{(1S)-2-hydroxy-1-[(1S)-1-methylpropyl]-5-hexenyl}benzenesulfonamide]	1.85	1 (1=non-toxic)				
CC[C@H](C)[C@H](NS(=O)(=O)c1cccc(Cl)c1)C(O)c1ccc(SC)cc1 (stereo partly drawn) [Example 201, 3-chloro-N-((1S,2S)-1-{hydroxy[4-(methylsulfanyl)phenyl]methyl}-2-methylbutyl)benzenesulfonamide]	2.45	1 (1=non-toxic)				
CCCCCCC(O)[C@@H](NS(=O)(=O)c1ccccc1F)[C@@H](C)CC (stereo partly drawn) [Example 203, 2-fluoro-N-{(1S)-2-hydroxy-1-[(1S)-1-methylpropyl]octyl}benzenesulfonamide]	3.47	1 (1=non-toxic)				
CCCCCC(O)[C@@H](NS(=O)(=O)c1ccccc1F)[C@@H](C)CC (stereo partly drawn) [Example 204, 2-fluoro-N-{(1S)-2-hydroxy-1-[(1S)-1-methylpropyl]heptyl}benzenesulfonamide]	3.73	1 (1=non-toxic)				

SMILES	fold induction at 10 µg/mL (beta amyloid production; [1])	(%)APPI Toxicity (CHO-K1 cells; Conc 10 μg/ml)	APPI Fold Increase (beta amyloid production; [2]) [fold]	APPI % of Example #98 (beta amyloid production) [%]	fold induction at 20 µg/mL (beta amyloid production; Conc 20 μg/ml, luciferase activity over diluent control, read-out: APPI Fold Increase)	(%)APPI Toxicity (CHO-K1 cells; Conc 20 μg/ml)
CCCCC(O)[C@@H](NS(=O)(=O)c1ccccc1F)[C@@H](C)CC (stereo partly drawn) [Example 205, 2-fluoro-N-{(1S)-2-hydroxy-1-[(1S)-1-methylpropyl]hexyl}benzenesulfonamide]	1.72	1 (1=non-toxic)				
C=CC(O)[C@@H](NS(=O)(=O)c1ccccc1F)[C@@H](C)CC (stereo partly drawn) [Example 206, 2-fluoro-N-{(1S)-2-hydroxy-1-[(1S)1-methylpropyl]-3-butenyl}benzenesulfonamide]	1.9	1 (1=non-toxic)				
CC[C@H](C)[C@H](NS(=O)(=O)c1ccccc1F)C(O)c1ccc(F)cc1 (stereo partly drawn) [Example 207, 2-fluoro-N-{(1S,2S)-1-[(4-fluorophenyl) (hydroxy)methyl]-2-methylbutyl}benzenesulfonamide]	1.81	1 (1=non-toxic)				
CC[C@H](C)[C@H](NS(=O)(=O)c1ccccc1F)C(O)c1ccc(Cl)cc1 (stereo partly drawn) [Example 208, N-{(1S,2S)-1-[(4-chlorophenyl) (hydroxy)methyl]-2-methylbutyl}-2-fluorobenzenesulfonamide]	2.01	1 (1=non-toxic)				
CC[C@H](C)[C@H](NS(=O)(=O)c1ccccc1F)C(O)c1ccc(OC)cc1 (stereo partly drawn) [Example 209, 2-fluoro-N-{(1S,2S)-1-[hydroxy(4-methoxyphenyl)methyl]-2-methylbutyl} benzenesulfonamide]		1 (1=non-toxic)	1.81	88.04		
CC[C@H](C)[C@H](NS(=O)(=O)c1ccccc1F)C(O)CCC1OCCCO1 (stereo partly drawn) [Example 210, N-{(1S)-4-(1,3-dioxan-2-yl)-2-hydroxy-1-[(1S)-1-methylpropyl]butyl}-2-fluorobenzenesulfonamide]	1.68	1 (1=non-toxic)				
CC[C@H](C)[C@H](NS(=O)(=O)c1ccc(Br)cc1)C(C)(C)O [Example 211]	2.09	1 (1=non-toxic)				
CCCCC(O)(CCCC)[C@@H](NS(=O)(=O)c1ccc(Br)cc1)[C@@H](C)CC [Example 213, 4-bromo-N-{(1S)-2-butyl-2-hydroxy-1-[(1S)-1-methylpropyl]hexyl}benzenesulfonamide]	3.03	1 (1=non-toxic)				
CC[C@H](C)[C@H](NS(=O)(=O)c1ccc(Br)cc1)C(O)(c1ccccc1)c1ccccc1 [Example 215, 4-bromo-N-{(1S,2S)-1-[hydroxy(diphenyl)methyl]-2-methylbutyl}benzenesulfonamide]	1.65	1 (1=non-toxic)				
CC[C@H](C)[C@H](NS(=O)(=O)c1ccc(Br)cc1)C(O)(CC)CC [Example 217, 4-bromo-N-{(1S)-2-ethyl-2-hydroxy-1-[(1S)-1-methylpropyl]butyl}benzenesulfonamide]	1.68	1 (1=non-toxic)				
CC[C@H](C)[C@H](NS(=O)(=O)c1ccc(Br)cc1)C(O)(c1ccc(Cl)cc1)c1ccc(Cl)cc1 [Example 218, N-{(1S,2S)-1-[bis(4-chlorophenyl) (hydroxy)methyl]-2-methylbutyl}-4-bromobenzenesulfonamide]	1.55	1 (1=non-toxic)				
C=C(C)C(O)(C(=C)C)[C@@H](NS(=O)(=O)c1ccc(Br)cc1)[C@@H](C)CC [Example 219, 4-bromo-N-{(1S)-2-hydroxy-2-isopropenyl-3-methyl-1-[(1S)-1-methylpropyl]-3-butenyl}benzenesulfonamide]	1.8	1 (1=non-toxic)			2.8	1 (1=non-toxic)
C/C=C(\C)C(O)(/C(C)=C/C)[C@@H](NS(=O)(=O)c1ccc(Br)cc1)[C@@H](C)CC (stereo partly drawn) [Example 220, 4-bromo-N-{(1S,3E)-2-hydroxy-3-methyl-2-[(1E)-1-methyl-1-propenyl]-1-[(1S)-1-methylpropyl]-3-pentenyl}benzenesulfonamide]	3.29	1 (1=non-toxic)				
C=CCCC(O)(CCC=C)[C@@H](NS(=O)(=O)c1ccc(Br)cc1)[C@@H](C)CC [Example 221, 4-bromo-N-{(1S)-2-(3-butenyl)-2-hydroxy-1-[(1S)-1-methylpropyl]-5-hexenyl}benzenesulfonamide]	5.73	1 (1=non-toxic)				
CC[C@H](C)[C@H](NS(=O)(=O)c1ccc(Br)cc1)C(O)(c1cccc2ccccc12)c1cccc2ccccc12 [Example 222, 4-bromo-N-((1S,2S)-1-{hydroxy[di(1-naphthyl)]methyl}-2-methylbutyl) benzenesulfonamide]		1 (1=non-toxic)	1.59	54.46		

Reference: US7166622B2, “Substituted phenylsulfonamide inhibitors of beta amyloid production” (Wyeth, priority 2002, dated 2007)
